Key:
serum half-life = format: in vivo; conditions: in words; compared with ceftriaxone
Enterobacter cloacae P99 = assay: MIC of ceftriaxone, alone and with compound of formula (I); format: cell-based
[1] = tested on: Bacteroides fragilis VP1 8908; assay: as above; format: cell-based
[2] = in vivo; cited from earlier work
Bacteroides fragilis = conditions: coadministration with tazobactam; J. Antimicrobial Chemotherapy (1993), 32, 307-312; cited from earlier work
various microorganisms = assay: enhancement of antibacterial activity of ceftriaxone by compound of formula (I) (MIC data overall); format: cell-based; conditions: with 1 μg/ml compound of formula (I); from β-lactamase inhibitory effect
Klebsiella pneumoniae 4 = assay: MIC of ceftriaxone, alone and with compound of formula (I); format: cell-based
[3] = ceftriaxone + 1 μg/1 ml of compound of Formula (I)

| SMILES | serum half life (serum half-life) | MIC + 1 μg/1 ml of compound of Formula (I) (Enterobacter cloacae P99; Enterobacter cloacae P99, ceftriaxone + 1 μg/1 ml of compound of Formula (I)) | MIC (Enterobacter cloacae P99; Enterobacter cloacae, P99, read-out: MIC Ceftriaxone alone) | MIC ([1]; VP18908, ceftriaxone alone) | MIC + 1 μg/1 ml of compound of Formula (I) [1, 3] | serum half-lives [2] | activity of ceftriaxone against anaerobes such as Bacteroides fragilis (Bacteroides fragilis) | enhancement of antibacterial activity of ceftriaxone (various microorganisms) | MIC + 1 μg/1 ml of compound of Formula (I) (Klebsiella pneumoniae 4; [3]) | MIC (Klebsiella pneumoniae 4; ceftriaxone alone) |
| --- | --- | --- | --- | --- | --- | --- | --- | --- | --- | --- |
| O=C([O-])C1=CS[C@@H]2/C(=C\c3cn4c(n3)SCC4)C(=O)N12.[Na+] (racemic) | more compatible with ceftriaxone | – | – | – | – | – | – | – | – | – |
| CO/N=C(\C(=O)N[C@@H]1C(=O)N2C(C(=O)O)=C(CSc3nc(=O)c(=O)[nH]n3C)CS[C@H]12)c1csc(N)n1 [Ceftriaxone, [6R-[6α,7β(Z)]]-7-[[(2-Amino4-thiazolyl)(methoxyimino)acetyl]amino]-8-oxo-3-[[(1,2,5,6-tetrahydro-2-methyl-5-6-dioxo-1,2,4-triazin-3-yl)thio]-methyl]-5-thia-1-azabicyclo[4-2-O]oct-2-ene-2-carboxylic acid] | – | 0.5 µg/mL | 128 µg/mL | 128 µg/mL | 2 µg/mL | ca. 8 hours | enhanced by coadministration with the β-lactamaseinhibitor tazobactam | substantial enhancement of antibacterial activity | 0.5 µg/mL | 16 µg/mL |
| C[C@]1(Cn2ccnn2)[C@H](C(=O)O)N2C(=O)C[C@H]2S1(=O)=O [tazobactam] | – | – | – | – | – | ca. 1 hours | – | – | – | – |
